Assay results as given in PubChem BioAssay AID1963981 (Molecular Pharmacology Branch, DTP, NCI, 2024).

Test system: 354836-022-R-J1-PDC multicell spheroid viability
Assay: Anticancer human tumor 354836-022-R-J1-PDC patient-derived head and neck squamous cell carcinoma cell line growth inhibition [PI3K]
Settings: for IC50: curve of first compound; for viability, T/C: stronger effect = lower value
In short: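 Three cell types, namely tumor cells, endothelial cells and mesenchymal stem cells, formed each spheroid. Combinations with four PI3K inhibitors were screened at clinically achievable concentrations decreasing by half-log, and spheroid viability was recorded.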

[1] = second compound 0.00316 µM, first compound 0.0316 µM
[2] = second compound 0.00316 µM, first compound 0.1 µM
[3] = second compound 0.00316 µM, first compound 0.316 µM
[4] = second compound 0.00316 µM, first compound 1 µM
[5] = second compound 0.00316 µM, first compound 3.16 µM
[6] = second compound 0.00316 µM, first compound 10 µM
[7] = second compound 0.01 µM, first compound 0.0316 µM
[8] = second compound 0.01 µM, first compound 0.1 µM
[9] = second compound 0.01 µM, first compound 0.316 µM
[10] = second compound 0.01 µM, first compound 1 µM
[11] = second compound 0.01 µM, first compound 3.16 µM
[12] = second compound 0.01 µM, first compound 10 µM
[13] = second compound 0.0316 µM, first compound 0.0316 µM
[14] = second compound 0.0316 µM, first compound 0.1 µM
[15] = second compound 0.0316 µM, first compound 0.316 µM
[16] = second compound 0.0316 µM, first compound 1 µM
[17] = second compound 0.0316 µM, first compound 3.16 µM
[18] = second compound 0.0316 µM, first compound 10 µM
[19] = second compound 0.1 µM, first compound 0.0316 µM
[20] = second compound 0.1 µM, first compound 0.1 µM
[21] = second compound 0.1 µM, first compound 0.316 µM
[22] = second compound 0.1 µM, first compound 1 µM
[23] = second compound 0.1 µM, first compound 3.16 µM
[24] = second compound 0.1 µM, first compound 10 µM
[25] = second compound 0.316 µM, first compound 0.0316 µM
[26] = second compound 0.316 µM, first compound 0.1 µM
[27] = second compound 0.316 µM, first compound 0.316 µM
[28] = second compound 0.316 µM, first compound 1 µM
[29] = second compound 0.316 µM, first compound 3.16 µM
[30] = second compound 0.316 µM, first compound 10 µM
[31] = second compound 1 µM, first compound 0.0316 µM
[32] = second compound 1 µM, first compound 0.1 µM
[33] = second compound 1 µM, first compound 0.316 µM
[34] = second compound 1 µM, first compound 1 µM
[35] = second compound 1 µM, first compound 3.16 µM
[36] = second compound 1 µM, first compound 10 µM
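Further: spheroids exposed to agents for seven days before the viability read.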

In the case of C#Cc1c(F)ccc2cc(O)cc(-c3ncc4c(N5CC6CCC(C5)N6)nc(OCC56CCCN5CC(F)C6)nc4c3F)c12 (stereo not drawn) + COc1c(OCCCN2CCOCC2)ccc2c3n(c(=NC(=O)c4cnc(N)nc4)nc12)CCN3, the IC50 (second compound 0.00316 µM) is reported as > 10000 nM, the IC50 (second compound 0.01 µM) is reported as > 10000 nM and the IC50 (second compound 0.0316 µM) is reported as > 10000 nM. The IC50 (second compound 0.1 µM) was 516 nM, the IC50 (second compound 0.316 µM) was < 31.6 nM and the IC50 (second compound 1 µM) was < 31.6 nM. For the same compound, the viability, T/C [1] was 113%, the viability, T/C [2] was 102% and the viability, T/C [3] was 107%. The viability, T/C [4] was 108%, the viability, T/C [5] was 111% and the viability, T/C [6] was 92.8%. The viability, T/C [7] was 98%, the viability, T/C [8] was 99% and the viability, T/C [9] was 96.3%. It also gave a viability, T/C [10] of 116%, a viability, T/C [11] of 92% and a viability, T/C [12] of 101%. For the same compound, the viability, T/C [13] was 79.4%, the viability, T/C [14] was 84.2% and the viability, T/C [15] was 96.4%. For the same compound, the viability, T/C [16] was 89.7%, the viability, T/C [17] was 74.1% and the viability, T/C [18] was 77.1%. The viability, T/C [19] was 56.1%, the viability, T/C [20] was 67.8% and the viability, T/C [21] was 52.9%. The viability, T/C [22] was 47.1%, the viability, T/C [23] was 45.6% and the viability, T/C [24] was 45.4%. It also gave a viability, T/C [25] of 14.6%, a viability, T/C [26] of 14% and a viability, T/C [27] of 12.9%. The viability, T/C [28] was 14.6%, the viability, T/C [29] was 11.4% and the viability, T/C [30] was 3.3%. For the same compound, the viability, T/C [31] was 2.48%, the viability, T/C [32] was 2.22% and the viability, T/C [33] was 1.66%. For the same compound, the viability, T/C [34] was 1.78%, the viability, T/C [35] was 1.73% and the viability, T/C [36] was 0.66%.

For C=CC(=O)N1CCN(c2nc(=O)n(-c3c(C)ccnc3C(C)C)c3nc(-c4c(O)cccc4F)c(F)cc23)C(C)C1 (stereo not drawn) + COc1c(OCCCN2CCOCC2)ccc2c3n(c(=NC(=O)c4cnc(N)nc4)nc12)CCN3, the IC50 (second compound 0.00316 µM) was > 10000 nM, the IC50 (second compound 0.01 µM) was > 10000 nM and the IC50 (second compound 0.0316 µM) was > 10000 nM. For the same compound, the IC50 (second compound 0.1 µM) was > 10000 nM, the IC50 (second compound 0.316 µM) was < 31.6 nM and the IC50 (second compound 1 µM) was < 31.6 nM. The viability, T/C [1] was 96.3%, the viability, T/C [2] was 106% and the viability, T/C [3] was 109%. It also gave a viability, T/C [4] of 108%, a viability, T/C [5] of 118% and a viability, T/C [6] of 116%. For the same compound, the viability, T/C [7] was 97.7%, the viability, T/C [8] was 99% and the viability, T/C [9] was 98.5%. The viability, T/C [10] was 102%, the viability, T/C [11] was 105% and the viability, T/C [12] was 90.4%. The viability, T/C [13] was 83.2%, the viability, T/C [14] was 83.5% and the viability, T/C [15] was 72%. The viability, T/C [16] was 82.6%, the viability, T/C [17] was 110% and the viability, T/C [18] was 95.4%. It also gave a viability, T/C [19] of 61.4%, a viability, T/C [20] of 45.3% and a viability, T/C [21] of 59.2%. The viability, T/C [22] was 62.8%, the viability, T/C [23] was 61.5% and the viability, T/C [24] was 55.6%. For the same compound, the viability, T/C [25] was 14.3%, the viability, T/C [26] was 16.2% and the viability, T/C [27] was 16.2%. It also gave a viability, T/C [28] of 18.4%, a viability, T/C [29] of 25.9% and a viability, T/C [30] of 13%. The viability, T/C [31] was 1.79%, the viability, T/C [32] was 1.75% and the viability, T/C [33] was 1.72%. The viability, T/C [34] was 2.49%, the viability, T/C [35] was 1.82% and the viability, T/C [36] was 1.3%.

In the case of CC(Cn1ccc(-c2ccc(C#N)c(Cl)c2)n1)NC(=O)c1cc(C(C)O)[nH]n1 (stereo not drawn) + COc1c(OCCCN2CCOCC2)ccc2c3n(c(=NC(=O)c4cnc(N)nc4)nc12)CCN3, the IC50 (second compound 0.00316 µM) is reported as > 10000 nM, the IC50 (second compound 0.01 µM) is reported as > 10000 nM and the IC50 (second compound 0.0316 µM) is reported as > 10000 nM. The IC50 (second compound 0.1 µM) was < 31.6 nM, the IC50 (second compound 0.316 µM) was < 31.6 nM and the IC50 (second compound 1 µM) was < 31.6 nM. It also gave a viability, T/C [1] of 119%, a viability, T/C [2] of 99.5% and a viability, T/C [3] of 106%. It also gave a viability, T/C [4] of 104%, a viability, T/C [5] of 102% and a viability, T/C [6] of 86.3%. It also gave a viability, T/C [7] of 98.8%, a viability, T/C [8] of 104% and a viability, T/C [9] of 92.5%. The viability, T/C [10] was 113%, the viability, T/C [11] was 105% and the viability, T/C [12] was 80%. It also gave a viability, T/C [13] of 69.6%, a viability, T/C [14] of 82.7% and a viability, T/C [15] of 85.2%. The viability, T/C [16] was 86.9%, the viability, T/C [17] was 88.5% and the viability, T/C [18] was 67.5%. For the same compound, the viability, T/C [19] was 48.4%, the viability, T/C [20] was 52.5% and the viability, T/C [21] was 52%. The viability, T/C [22] was 57.1%, the viability, T/C [23] was 58.1% and the viability, T/C [24] was 51.9%. For the same compound, the viability, T/C [25] was 11.8%, the viability, T/C [26] was 18.3% and the viability, T/C [27] was 15.1%. It also gave a viability, T/C [28] of 20.9%, a viability, T/C [29] of 15.2% and a viability, T/C [30] of 18.2%. It also gave a viability, T/C [31] of 2.74%, a viability, T/C [32] of 1.7% and a viability, T/C [33] of 1.89%. It also gave a viability, T/C [34] of 2.26%, a viability, T/C [35] of 2.15% and a viability, T/C [36] of 2.19%.

With CC1(C)CCC(Nc2ncc(C(F)(F)F)c(-c3c[nH]c4c(P(C)(C)=O)c(C#N)ccc34)n2)CN1 (stereo not drawn) + COc1c(OCCCN2CCOCC2)ccc2c3n(c(=NC(=O)c4cnc(N)nc4)nc12)CCN3 the IC50 (second compound 0.00316 µM) was < 31.6 nM, the IC50 (second compound 0.01 µM) was < 31.6 nM and the IC50 (second compound 0.0316 µM) was < 31.6 nM. The IC50 (second compound 0.1 µM) was < 31.6 nM, the IC50 (second compound 0.316 µM) was < 31.6 nM and the IC50 (second compound 1 µM) was < 31.6 nM. The viability, T/C [1] was 12.1%, the viability, T/C [2] was 11.7% and the viability, T/C [3] was 11.3%. The viability, T/C [4] was 12.8%, the viability, T/C [5] was 15.3% and the viability, T/C [6] was 3.31%. For the same compound, the viability, T/C [7] was 13.1%, the viability, T/C [8] was 12.1% and the viability, T/C [9] was 13%. For the same compound, the viability, T/C [10] was 12.4%, the viability, T/C [11] was 15.3% and the viability, T/C [12] was 1.45%. For the same compound, the viability, T/C [13] was 9.55%, the viability, T/C [14] was 11.7% and the viability, T/C [15] was 11.4%. It also gave a viability, T/C [16] of 14.8%, a viability, T/C [17] of 13.4% and a viability, T/C [18] of 1.98%. It also gave a viability, T/C [19] of 9.95%, a viability, T/C [20] of 8.41% and a viability, T/C [21] of 9.5%. It also gave a viability, T/C [22] of 9.61%, a viability, T/C [23] of 8.75% and a viability, T/C [24] of 0.91%. For the same compound, the viability, T/C [25] was 3.76%, the viability, T/C [26] was 3.49% and the viability, T/C [27] was 5.12%. For the same compound, the viability, T/C [28] was 4.26%, the viability, T/C [29] was 4.19% and the viability, T/C [30] was 0.4%. It also gave a viability, T/C [31] of 1.25%, a viability, T/C [32] of 1.35% and a viability, T/C [33] of 1.58%. The viability, T/C [34] was 1.61%, the viability, T/C [35] was 1.3% and the viability, T/C [36] was 0.43%.
